Assay results taken from patent US11339177B2, “Heteroaryl compounds as inhibitors of necrosis, composition and method using the same” (ACCRO BIOSCIENCE INC., priority 2017, dated 2022).

Tests used:
HT29 cells = test: Necroptosis assay in HT29 cells (TNF-α, Smac mimetic, z-VAD; cell viability); assay type: cell-based; conditions: Homo sapiens, HT-29; TNF-α (40 ng/mL), Smacmimetic (100 nM), z-VAD (20 μM), 48 hours
Protocol: Human colon cancer HT29 cells were used in a necroptosis assay. For this assay, HT29 cells were added to 96-well plates and then were pre-treated with 10 μM of the test compound for one hour. Then the cells were treated with TNF-α (40 ng/mL), Smacmimetic (100 nM) and z-VAD (20 μM) for 48 hours, and the viability of cells was quantified. DMSO pretreatment group was used as negative controls, Nec-1 pretreatment group was used as positive controls.
In Table 2, (1) “ND” indicates “not detected;” (2) Explanation for inhibition %: Taking Compound B14 as an example, its inhibition % was 30% (50 nM). It means that the when Compound B14 at a concentration of 50 nM was used in the HT29 Cell Assay, the necrosis of cells were inhibited at 30%.

L929 cells = test: Necroptosis assay in L929 cells (TNF-α, z-VAD; cell viability by ATP levels); assay type: cell-based; conditions: Mus musculus, TNF-α (40 ng/mL), z-VAD (20 μM), 48 hours
Protocol: […] Then the cells were treated with TNF-α (40 ng/mL) and z-VAD (20 μM) for 48 hours, and the viability of cells was quantified by detecting adenosine triphosphate (ATP) levels. DMSO pretreatment group was used as negative controls, Nec-1 pretreatment group was used as positive controls.

Compound	IC50 (HT29 cells)	IC50 (L929 cells)
O=C(Nc1nc2ccc(-c3cnc4c(c3)N(C(=O)OC3CCCCC3)CCO4)cc2s1)C1CC1 [Compound B3]	0.5 nM	0.59 nM
CC(=O)Nc1nc2ccc(-c3cnc4c(c3)N(C(=O)OC3CCCCC3)CCO4)cn2n1 [Compound B7]	46 nM	20 nM
CC(=O)Nc1cn2cc(-c3cnc4c(c3)N(C(=O)OC3CCCCC3)CCO4)ccc2n1 [Compound B8]	1 nM	1.5 nM
O=C(Nc1cn2cc(-c3cnc4c(c3)N(C(=O)OC3CCCCC3)CCO4)ccc2n1)C1CC1 [Compound B9]	0.5 nM	0.2 nM
Nc1cn2nc(-c3cnc4c(c3)N(C(=O)OC3CCCCC3)CCO4)ccc2n1 [Compound B11]	500 nM	8.9 nM
O=C(Nc1cn2nc(-c3cnc4c(c3)N(C(=O)OC3CCCCC3)CCO4)ccc2n1)C1CC1 [Compound B13]	1.3 nM	0.7 nM
CC(=O)Nc1nc2ccc(-c3cnc4c(c3)N(C(=O)OC3CCOCC3)CCO4)cc2s1 [Compound B15]	20 nM	8.8 nM
O=C(Nc1nc2ccc(-c3cnc4c(c3)N(C(=O)OC3CCOCC3)CCO4)cc2s1)C1CC1 [Compound B16]	4 nM	1.5 nM
O=C(Nc1cn2cc(-c3cnc4c(c3)N(C(=O)OC3CCOCC3)CCO4)ccc2n1)C1CC1 [Compound B19]	20 nM	10 nM
O=C(Nc1cn2nc(-c3cnc4c(c3)N(C(=O)OC3CCOCC3)CCO4)ccc2n1)C1CC1 [Compound B21]	50 nM	31 nM
CC(=O)Nc1nc2ccc(-c3cnc4c(c3)N(C(=O)OC(C)C3CC3)CCO4)cc2s1 (stereo not drawn) [Compound B24]	18 nM	5 nM
CC(=O)Nc1nc2ccc(-c3cnc4c(c3)N(C(=O)OC3CCCOC3)CCO4)cc2s1 (stereo not drawn) [Compound B25]	17 nM	10 nM
O=C(Nc1nc2ccc(-c3cnc4c(c3)N(C(=O)OC3CCOCC3)CCO4)nc2s1)C1CC1 [Compound B35]	36 nM	1 nM
CC(=O)Nc1nc2ccc(-c3cnc4c(c3)N(C(=O)OC3CCCCC3)C[C@@H](C)O4)cc2s1 [Compound B37, Cyclohexyl-(R)-7-(2-acetamidobenzo[d]thiazol-6-yl)-3-methyl-2,3-dihydro-1H-pyrido[2,3-b][1,4]oxazine-1-carboxylate]	32 nM	30 nM
CC(=O)Nc1nc2ccc(-c3cnc4c(c3)N(C(=O)OC3CCCCC3)C[C@H](C)O4)cc2s1 [Compound B38]	3500 nM	15 nM
CC(=O)Nc1cn2nc(-c3cnc4c(c3)N(C(=O)OC3CCOCC3)CC4)ccc2n1 [Compound B57]	600 nM	90 nM
CNC(=O)Nc1nc2ccc(-c3cnc4c(c3)N(C(=O)OC3CCOCC3)CC4)cc2s1 [Compound B60, Tetrahydro-2H-pyran-4-yl6-(2-(3-methylureido)benzo[d]thiazol-6-yl)-2,3-dihydro-1H-pyrrolo[3,2-b]pyridine-1-carboxylate]	1.3 nM	2.8 nM
O=C(Nc1nc2ccc(-c3cnc4c(c3)N(C(=O)CC3CCOCC3)CC4)nc2s1)C1CC1 [Compound B63]	25 nM	8.5 nM
CC(C)OC(=O)N1CCc2ncc(-c3ccc4nc(NC(=O)C5CC5)sc4c3)cc21 [Compound B65]	3.2 nM	4.5 nM
O=C(Nc1nc2ccc(-c3cnc4c(c3)N(C(=O)OCC3CC3)CC4)cc2s1)C1CC1 [Compound B66]	0.39 nM	0.73 nM
CN1CCC(OC(=O)N2CCc3ncc(-c4ccc5nc(NC(=O)C6CC6)sc5c4)cc32)CC1 [Compound B68, 1-methylpiperidin-4-yl-6-(2-(cyclopropanecarboxamido)benzo[d]thiazol-6-yl)-2,3-dihydro-1H-pyrrolo[3,2-b]pyridine-1-carboxylate]	30 nM	28.3 nM
